# Measurements: patent US6600037B1, “4,5-disubstituted-2-aminopyrimidines” (Celltech R & D Limited, priority 1999, dated 2003)
row,SMILES,melting point
1,"CC(C)(N)c1ccc(-c2nc(Nc3ccc(CCO)cc3)ncc2Cl)cc1F [Example 4, 4-[4-(1-Amino-1-methylethyl)-3-fluorophenyl]-5-chloro-N-[4-(2-hydroxyethyl)phenyl]pyrimidine-2-amine]",172 to 176 °C
2,"CC(C)(N)c1ccc(-c2nc(Nc3ccc(CCO)cc3)ncc2Cl)cc1 [Example 1, 4-[4-(1-Amino-1-methylethyl)phenyl]-5-chloro-N-[4-(2-hydroxyethyl)phenyl]pyrimidine-2-amine]",162 to 163 °C
3,"CC(C)(N)c1ccc(-c2nc(Nc3ccc(-n4ccnc4)cc3)ncc2Cl)cc1 [Example 3, 4-[4-(1-Amino-1-methylethyl)phenyl]-5-chloro-N-[4-(1-imidazolyl)phenyl]pyrimidine-2-amine]",199 to 201 °C
4,"CC(C)(N)c1ccc(-c2nc(Nc3ccc(CCn4ccnc4)cc3)ncc2Cl)cc1F [Example 10, 4-[4-(1-Amino-1-methylethyl)-3-fluorophenyl]-5-chloro-N-[4-(2-(imidazol-1-yl)ethyl)phenyl]pyrimidine 2-amine]",112 to 120 °C
5,"CC(C)(N)c1ccc(-c2nc(Nc3ccc(CCN4CCOCC4)cc3)ncc2Cl)cc1 [Example 9, 4-[4-(1-Amino-1-methylethyl)phenyl]-5-chloro-N-[4-(2-morpholinoethyl)phenyl]pyrimidine-2-amine]",166 to 173 °C
6,"C=CCOC(=O)NC(C)(C)c1ccc(-c2nc(Nc3ccc(CCn4ccnc4)cc3)ncc2Cl)cc1 [Example 5, 4-[4-(1-Allyloxycarbonylamino-1-methylethyl)phenyl]-5-chloro-N-[4-(2-(imidazol-1-yl)ethyl)phenyl]pyrimidine-2-amine]",72 to 78 °C
7,"C=CCOC(=O)NC(C)(C)c1ccc(-c2nc(Nc3ccc(CCn4ccnc4)cc3)ncc2Cl)cc1F [Example 7, 4-[4-(1-Allyloxycarbonylamino-1-methylethyl)-3-fluorophenyl]-5-chloro-N-[4-(2-(imidazol-1-yl)ethyl)phenyl]pyrimidine-2-amine]",88 °C
8,"CC(C)(N)c1ccc(-c2nc(Nc3cccc(CCO)c3)ncc2Cl)cc1 [Example 2, 4-[4-(1-Amino-1-methylethyl)phenyl]-5-chloro-N-[3-(2-hydroxyethyl)phenyl]pyrimidine-2-amine]",184 to 185 °C
